Patent publication US20110092592A1, “DIAGNOSIS AND TREATMENT OF HEPATIC DISORDER” (priority 2008, published 2011)

Tests used:
[1] = test system: patients with NASH having liver fibrosis; assay: Example 3: EPA-E with dietary restriction and exercise therapy in NASH patients having liver fibrosis, one year; assay type: in vivo, human; settings: one year after start of treatment
Experimental: Patients with NASH having liver fibrosis, that is to say, subjects suffering from fibrosis classified to stage 1 or 2 according to the fibrosis staging of Brunt et al. are collected (15 cases). Dietary restriction and exercise therapy are conducted so that the blood OA/SA ratio as monthly measured may be reduced in value from that measured previously, while 900 mg of EPA-E is administered twice a day, so as to do follow-up for one year. To the subjects in whom no change is recognized in OA/SA ratio, 900 mg of EPA-E is administered thrice a day.
The subjects in whom the reduction ratio of the OA/SA ratio in one month after the start of the administration is not lower than 5% are included in group A, while the subjects in whom the reduction ratio of the OA/SA ratio in one month after the start of the administration is lower than […] are included in group B. The reduction rate of the OA/SA ratio in one month is calculated by the equation: reduction rate (%)=[(OA/SA ratio before start of administration)−(OA/SA ratio one month after start of administration)]/OA/SA ratio before start of administration×100.

NASH = settings: 2700 mg/day for 12 months; Non-Patent Literature 3; cited from earlier work
patients with NASH = assay: Example 4: EPA-E in NASH patients grouped by adiponectin gene SNP276 genotype, one year; assay type: in vivo, human; settings: for NAS scores (Kleiner et al.): 900 mg twice a day, one year
Experimental: There are three genotypes for the adiponectin gene SNP276, the T/T, G/T and G/G genotypes, and humans with the G/G genotype are said to have a lower blood adiponectin level than those with the T/T genotype.
To a group of patients with NASH having the adiponectin gene SNP276 which is of the G/G genotype and a group of patients with NASH having the adiponectin gene SNP276 which is of the genotype other than the G/G genotype (each group comprising 15 cases), 900 mg of EPA-E is administered twice a day for one year. After the lapse of one year, therapeutic effects are evaluated by the NAS scoring of Kleiner et al. In both of the group of patients with NASH having the G/G genotype and the group of patients with NASH having the genotype other than the G/G genotype, NAS scores are improved owing to the administration of the drug for one year.

[2] = test system: subjects affirmatively diagnosed as having NASH; assay: Example 1: EPA-E group vs placebo control group in NASH subjects, one year; assay type: in vivo, human
Experimental: Subjects affirmatively diagnosed as having NASH are divided into two groups (each comprising 15 cases), namely the EPA-E group and the control group, then the groups are caused to take EPADEL S900 (containing 900 mg of EPA-E) and a placebo, respectively, twice a day. Doses are modified as appropriate to the subjects' conditions. Following the method described in American Journal of Gastroenterology 2001, Vol. 96, pp. 2711-2717 with respect to the criteria for diagnosing subjects, monitoring, histological testing, statistic analysis, and so forth, blood chemistry tests on ALT, AST, and the like are performed and the plasma fatty acid composition is determined over a dosage period of one year, and liver biopsy is conducted at the end of dosage, so as to make histological evaluations.
Of the EPA-E group, 15 cases are sorted into two groups, one (“effective” group) comprising the cases in which the score in accordance with the method of Brunt et al. is changed after the administration of the drug from that before the administration by 1 or 2, and the other (“ineffective” group) comprising the cases in which the score after the administration is not changed from that before the administration, and analysis is conducted on the change in the plasma fatty acid composition as determined over the dosage period of one year. The OA/SA ratio before the administration is not different between the effective group and the ineffective group. […] The reduction rate of the OA/SA ratio in two months is calculated by the equation: reduction rate (%)=[(OA/SA ratio before start of administration)−(OA/SA ratio two months after start of administration)]/OA/SA ratio before start of administration×100.

[3] = EPADEL S900 (900 mg EPA-E) twice a day, one year, vs before treatment and vs control group
[4] = effective group (Brunt score changed by 1 or 2)
[5] = ineffective group (Brunt score not changed)

CC/C=C\C/C=C\C/C=C\C/C=C\C/C=C\CCCC(=O)OCC [EPA-E, ethyl icosapentate ester]
fibrosis, staging of Brunt et al., by liver biopsy ([1]; group A (OA/SA reduction in one month not lower than 5%)): ameliorated from stage 2 to stage 1 or non-fibrotic stage, or again, from stage 1 to non-fibrotic stage | amelioration of fibrosis ([1]; group B (OA/SA reduction in one month lower than 1%)): slight | NASH (AST, ALT, inflammatory cytokines, oxidative stress markers, liver biopsy) (NASH): amelioration of NASH | degree of improvement in NAS score (patients with NASH; G/G genotype group vs other genotype group): higher in the group of patients with NASH having the G/G genotype | NAS scores (Kleiner et al.) (patients with NASH; G/G genotype group): improved | NAS scores (Kleiner et al.) (patients with NASH; genotype other than G/G): improved | mean value of ALT [2, 3]: reduced from those before treatment more markedly in comparison with the control group | mean value of AST [2, 3]: reduced from those before treatment more markedly in comparison with the control group | TIMP-1 [2, 4]: gradually reduced in value | hyaluronic acid [2, 4]: gradually reduced in value | type IV collagen [2, 4]: gradually reduced in value | reduction rate of the OA/SA ratio in two months ([2]; effective group compared with ineffective group): high in the effective group as compared with the ineffective group | plasma OA/SA ratio ([2]; for two months after start of administration, effective and ineffective groups): tends to be reduced in both groups | plasma OA/SA ratio ([2]; from the lapse of two months on, effective and ineffective groups): tends more or less to be reduced | TIMP-1 [2, 5]: hardly changed in value | hyaluronic acid [2, 5]: hardly changed in value | type IV collagen [2, 5]: hardly changed in value | average fibrosis, fibrosis staging of Brunt et al. ([2]; liver biopsy at the end of one-year dosage): from stage 2 to stage 1 | plasma OA/SA ratio ([2]; two months after start of administration, effective group vs ineffective group): lower in value than in the ineffective group
